Target: Human PDE10A1 (Homo sapiens, UniProt Q9Y233)
Assay: hPDE10A1 Enzyme Inhibition
Assay type: biochemical
Details: [3H]-cAMP substrate; read-out: hPDE10A1 IC50 Band
Experimental: hPDE10A1 Enzyme Activity: 50 μl samples of serially diluted Human PDE10A1 enzyme were incubated with 50 μl of [^3H]-cAMP for 20 minutes (at 37° C.). Reactions were carried out in Greiner 96 deep well 1 ml master-block. The enzyme was diluted in 20 mM Tris HCl pH7.4 and [^3H]-cAMP was diluted in 10 mM MgCl2, 40 mM Tris.HCl pH 7.4. The reaction was terminated by denaturing the PDE enzyme (at 70° C.) after which [^3H]-5′-AMP was converted to [^3H]-adenosine by adding 25 μl snake venom nucleotidase and incubating for 10 minutes (at 37° C.). Adenosine, being neutral, was separated from charged cAMP or AMP by the addition of 200 μl Dowex resin. Samples were shaken for 20 minutes then centrifuged for 3 minutes at 2,500 r.p.m. 50 μl of supernatant was removed and added to 200 μl of MicroScint-20 in white plates (Greiner 96-well Optiplate) and shaken for 30 minutes before reading on Perkin Elmer TopCount Scintillation Counter.
hPDE10A1 Enzyme Inhibition: To check inhibition profile 11 μl of serially diluted inhibitor was added to 50 μl of [^3H]-cAMP and 50 ul of diluted Human PDE10A1 and assay was carried out as in the enzyme activity assay. Data was analysed using Prism software (GraphPad Inc).

Chain of Human PDE10A1 (Q9Y233 1-779 isoform Q9Y233-1): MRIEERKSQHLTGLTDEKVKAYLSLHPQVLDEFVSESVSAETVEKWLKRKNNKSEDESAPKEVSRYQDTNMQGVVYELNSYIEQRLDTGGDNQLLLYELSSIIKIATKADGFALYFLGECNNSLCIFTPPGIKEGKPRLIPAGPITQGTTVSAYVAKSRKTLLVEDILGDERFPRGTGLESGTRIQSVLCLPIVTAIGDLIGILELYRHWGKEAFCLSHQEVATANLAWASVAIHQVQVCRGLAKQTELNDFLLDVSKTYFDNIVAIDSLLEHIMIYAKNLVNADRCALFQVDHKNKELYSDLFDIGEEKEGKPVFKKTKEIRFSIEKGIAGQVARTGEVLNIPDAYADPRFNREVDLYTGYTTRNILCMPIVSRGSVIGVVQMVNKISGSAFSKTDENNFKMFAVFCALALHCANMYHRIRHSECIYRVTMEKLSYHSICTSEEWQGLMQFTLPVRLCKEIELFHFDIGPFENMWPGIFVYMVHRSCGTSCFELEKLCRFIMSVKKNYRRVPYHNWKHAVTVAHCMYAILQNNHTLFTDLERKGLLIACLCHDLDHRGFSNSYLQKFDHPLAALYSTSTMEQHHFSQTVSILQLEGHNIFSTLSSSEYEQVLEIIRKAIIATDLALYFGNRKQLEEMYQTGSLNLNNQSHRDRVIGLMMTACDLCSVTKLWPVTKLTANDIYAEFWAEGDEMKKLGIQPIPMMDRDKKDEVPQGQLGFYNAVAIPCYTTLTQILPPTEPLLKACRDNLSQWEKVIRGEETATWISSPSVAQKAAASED

SMILES	IC50 [nM]
COc1cc(-c2ccccc2-c2ccc(OCc3ccc4ccccc4n3)cc2)ccc1Cl [Example 1861]	≤ 50
c1ccc(N2CCCC2)c(-c2ccc(OCc3ccc4ccccc4n3)cc2)c1 [Example 1868, 2-((2′-(pyrrolidin-1-yl)biphenyl-4-yloxy)methyl)quinoline]	> 50
Cc1ccccc1-c1ccc(OCc2ccc3ccccc3n2)cc1 [Example 444, 2-((2′-methylbiphenyl-4-yloxy)methyl)quinoline]	> 50
CCc1ccc(COc2ccc(-c3ccccc3-c3ccncc3)cc2)nc1 [Example 1878, 5-ethyl-2-((2′-(pyridin-4-yl)biphenyl-4-yloxy)methyl)pyridine]	> 50
N#Cc1cc(-c2ccccc2-c2ccc(OCc3ccc4ccccc4n3)cc2)ccc1Cl [Example 1855]	≤ 50
CS(=O)(=O)c1cccc(-c2ccncc2)c1-c1ccc(OCc2ccc3ccccc3n2)cc1 [Example 392, 2-((2′-(methylsulfonyl)-6′-(pyridin-4-yl)biphenyl-4-yloxy)methyl)quinoline]	≤ 50
CC(C)Oc1ccccc1-c1ccc(OCc2ccc3ccccc3n2)cc1 [Example 1879, 2-((2′-isopropoxybiphenyl-4-yloxy)methyl)quinoline]	> 50
Fc1ccc2nc(COc3ccc(-c4ccccc4-c4ccncc4)cc3)ccc2c1 [Example 560, 6-fluoro-2-((2′-(pyridin-4-yl)biphenyl-4-yloxy)methyl)quinoline]	≤ 50
N#Cc1ccc(-c2ccncc2)c(-c2ccc(OCc3ccc4ccccc4n3)cc2)c1 [Example 406, 6-(Pyridin-4-yl)-4′-(quinolin-2-ylmethoxy)biphenyl-3-carbonitrile]	≤ 50
c1ccc(C2CCCCC2)c(-c2ccc(OCc3ccc4ccccc4n3)cc2)c1 [Example 1877, 2-((2′-cyclohexylbiphenyl-4-yloxy)methyl)quinoline]	> 50
COc1ccc(-c2ccccc2-c2ccc(OCc3ccc4ccccc4n3)cc2)cc1C(F)(F)F [Example 1860]	≤ 50
c1ccc(-c2ccccc2-c2ccc(OCc3ccc4ccccc4n3)cc2)cc1 [Example 1863]	> 50
CN(C)Cc1cccc(-c2ccncc2)c1-c1ccc(OCc2ccc3ccccc3n2)cc1 [Example 1874, N,N-dimethyl-1-(6-(pyridin-4-yl)-4′-(quinolin-2-ylmethoxy)biphenyl-2-yl)methanamine]	> 50
Fc1ccc(N2CCOCC2)c(-c2ccc(OCc3ccc4ccccc4n3)cc2)c1 [Example 469, 4-(5-fluoro-4′-(quinolin-2-ylmethoxy)biphenyl-2-yl)morpholine]	≤ 50
N#Cc1ccc(-c2ccccc2-c2ccc(OCc3ccc4ccccc4n3)cc2)cc1 [Example 255]	≤ 50
Cc1cccc(-c2ccc(OCc3ccc4ccccc4n3)cc2)c1-c1ccncc1 [Example 1886, 2-(3′-Methyl-2′-pyridin-4-yl-biphenyl-4-yloxymethyl)-quinoline]	> 50
c1ccc(-c2ccoc2)c(-c2ccc(OCc3ccc4ccccc4n3)cc2)c1 [Example 1871, 2-((2′-(furan-3-yl)biphenyl-4-yloxy)methyl)quinoline]	> 50
O=Cc1cccc(-c2ccncc2)c1-c1ccc(OCc2ccc3ccccc3n2)cc1 [Example 1854, 6-(Pyridin-4-yl)-4′-(quinolin-2-ylmethoxy)biphenyl-2-carbaldehyde]	≤ 50
Fc1cccc(-c2ccncc2)c1-c1ccc(OCc2ccc3ccccc3n2)cc1 [Example 381, 2-(6′-Fluoro-2′-pyridin-4-yl-biphenyl-4-yloxymethyl)-quinoline]	> 50
Clc1ccc(-c2ccccc2-c2ccc(OCc3ccc4ccccc4n3)cc2)cc1 [Example 180]	> 50
COc1ccc(-c2ccccc2-c2ccc(OCc3ccc4ccccc4n3)cc2)cc1 [Example 330]	> 50
N#Cc1cccc(-c2ccncc2)c1-c1ccc(OCc2ccc3ccccc3n2)cc1 [Example 383, 6-Pyridin-4-yl-4′-(quinolin-2-ylmethoxy)-biphenyl-2-carbonitrile]	≤ 50
Cc1cc(-c2ccncc2)c(-c2ccc(OCc3ccc4ccccc4n3)cc2)cc1C [Example 1880, 2-((4′,5′-dimethyl-2′-(pyridin-4-yl)biphenyl-4-yloxy)methyl)quinoline]	> 50
c1ccc(N2CCOCC2)c(-c2ccc(OCc3ccc4ccccc4n3)cc2)c1 [Example 445, 4-(4′-(quinolin-2-ylmethoxy)biphenyl-2-yl)morpholine]	> 50
Cc1cc(-c2ccccc2-c2ccc(OCc3ccc4ccccc4n3)cc2)ccn1 [Example 1859, 2-((2′-(2-methylpyridin-4-yl)biphenyl-4-yloxy)methyl)quinoline]	≤ 50
O=[N+]([O-])c1cccc(-c2ccncc2)c1-c1ccc(OCc2ccc3ccccc3n2)cc1 [Example 384, 2-(2′-Nitro-6′-pyridin-4-yl-biphenyl-4-yloxymethyl)-quinoline]	≤ 50
Cc1ccc(-c2ccc(OCc3ccc4ccccc4n3)cc2)c(-c2ccncc2)c1 [Example 1867, 2-(4′-Methyl-2′-pyridin-4-yl-biphenyl-4-yloxymethyl)-quinoline]	> 50
CC(C)c1ccccc1-c1ccc(OCc2ccc3ccccc3n2)cc1 [Example 443, 2-((2′-isopropylbiphenyl-4-yloxy)methyl)quinoline]	> 50
Cc1cccnc1COc1ccc(-c2ccccc2-c2ccncc2)cc1 [Example 1882, 3-methyl-2-((2′-(pyridin-4-yl)biphenyl-4-yloxy)methyl)pyridine]	> 50

Other lines, results leading:

IC50 [nM]	SMILES
≤ 50	Clc1ccc(-c2ccncc2)c(-c2ccc(OCc3ccc4ccccc4n3)cc2)c1 [Example 405, 2-((5′-Chloro-2′-(pyridin-4-yl)biphenyl-4-yloxy)methyl)quinoline]
> 50	CCCc1ccccc1-c1ccc(OCc2ccc3ccccc3n2)cc1 [Example 1866, 2-((2′-propylbiphenyl-4-yloxy)methyl)quinoline]
≤ 50	Cc1cnc(COc2ccc(-c3ccccc3-c3ccncc3)cc2)c(C)c1 [Example 1887, 3,5-dimethyl-2-((2′-(pyridin-4-yl)biphenyl-4-yloxy)methyl)pyridine]
≤ 50	Fc1ccc(-c2ccncc2)c(-c2ccc(OCc3ccc4ccccc4n3)cc2)c1 [Example 404, 2-((5′-fluoro-2′-(pyridin-4-yl)biphenyl-4-yloxy)methyl)quinoline]
≤ 50	Cc1ccc(-c2ccncc2)c(-c2ccc(OCc3ccc4ccccc4n3)cc2)c1 [Example 408, 2-(5′-Methyl-2′-pyridin-4-yl-biphenyl-4-yloxymethyl)-quinoline]
> 50	Fc1cccc(-c2ccc(OCc3ccc4ccccc4n3)cc2)c1-c1ccncc1 [Example 1946, 2-(3′-Fluoro-2′-pyridin-4-ylbiphenyl-4-yloxymethyl)-quinoline]
≤ 50	c1ccc(-c2ccc(OCc3cn4ccccc4n3)cc2)c(-c2ccncc2)c1 [Example 619, 2-((2′-(pyridin-4-yl)biphenyl-4-yloxy)methyl)imidazo[1,2-a]pyridine]
> 50	N#Cc1cccc(-c2ccc(OCc3ccc4ccccc4n3)cc2)c1-c1ccncc1 [Example 1870, 2-Pyridin-4-yl-4′-(quinolin-2-ylmethoxy)-biphenyl-3-carbonitrile]
≤ 50	COc1cc(-c2ccccc2-c2ccc(OCc3ccc4ccccc4n3)cc2)ccc1C#N [Example 205]
≤ 50	COc1ccc(-c2ccccc2-c2ccc(OCc3ccc4ccccc4n3)cc2)cc1F [Example 1858]
> 50	Fc1ccc(-c2ccncc2)c(N2CCC(OCc3ccc4ccccc4n3)CC2)c1 [Example 1706, 2-((1-(5-fluoro-2-(pyridin-4-yl)phenyl)piperidin-4-yloxy)methyl)quinoline]
≤ 50	Fc1ccc(-c2ccc(OCc3ccc4ccccc4n3)cc2)c(-c2ccncc2)c1 [Example 1856, 2-(4′-Fluoro-2′-pyridin-4-yl-biphenyl-4-yloxymethyl)-quinoline]
≤ 50	N#Cc1cccc(N2CCOCC2)c1-c1ccc(OCc2ccc3ccccc3n2)cc1 [Example 448, 6-morpholino-4′-(quinolin-2-ylmethoxy)biphenyl-2-carbonitrile]
≤ 50	c1ccc(-c2ccc(OCc3ccc4ccccc4n3)cc2)c(-c2ccncc2)c1 [Example 380, 2-((2′-(Pyridin-4-yl)biphenyl-4-yloxy)methyl)quinoline]
> 50	COc1ccc(-c2ccccc2-c2ccc(OCc3ccc4ccccc4n3)cc2)cc1Cl [Example 1869]
> 50	Clc1cccc(-c2ccc(OCc3ccc4ccccc4n3)cc2)c1-c1ccncc1 [Example 1872, 2-((3′-Chloro-2′-(pyridin-4-yl)biphenyl-4-yloxy)methyl)quinoline]
> 50	Cc1ccnc(COc2ccc(-c3ccccc3-c3ccncc3)cc2)c1 [Example 1947, 4-methyl-2-((2′-(pyridin-4-yl)biphenyl-4-yloxy)methyl)pyridine]
> 50	O=C(c1cccc(-c2ccncc2)c1-c1ccc(OCc2ccc3ccccc3n2)cc1)N1CCOCC1 [Example 1864, morpholino(6-(pyridin-4-yl)-4′-(quinolin-2-ylmethoxy)biphenyl-2-yl)methanone]
≤ 50	COc1ccc(-c2ccccc2-c2ccc(OCc3ccc4ccccc4n3)cc2)cc1C#N [Example 281]

From patent US20110224204A1, “DI-SUBSTITUTED PHENYL COMPOUNDS” (priority 2008, published 2011)
